# Tested on: interferon regulatory factor (IRF) pathway in THP1-Dual™ cells
# Experiment: THP1-Dual reporter gene assay (Agonist_THP1_EC50)
# Type: cell-based
# Details: Homo sapiens, 20-24 hrs compound treatment, Lucia luciferase (IRF) readout
# Text: This is the cellular reporter assay to evaluate compounds' agonism to interferon regulatory factor (IRF) pathway in THP1-Dual™ cells (InvivoGen, cat number thpd-nfis). THP1-Dual™ cells were derived from the human THP-1 monocyte cell line by stable integration lucia luciferase gene, a new secreted luciferase reporter gene, under the control of an ISG54 (interferon-stimulated gene) minimal promoter in conjunction with five interferon (IFN)-stimulated response elements. As a result, THP1-Dual™ cells allow the study of the IRF pathway, by assessing the activity of Lucia luciferase. Lucia luciferase protein is readily measurable in the cell culture supernatant when using QUANTI-Luc™ (InvivoGen, cat: rep-qlcg-500).
# After 20-24 hrs compound treatment in THP1-Dual cells, the compounds' agonism to IRF pathway and cell toxicity were tested by measuring luminescence and OD 450 on an Envision plate reader.
# On the day of experiment, 30 μL of test medium (RPMI 1640, 2 mM L-glutamine, 25 mM HEPES, […] heat-inactivated fetal bovine serum) was dispensed in a white 384-well plate (Grenier, cat: 781098) containing the serially diluted compounds (final 1% DMSO) transferred by the Echo550 machine. Then 30 μL of cell suspension (˜33,000 cells, 1.1×10^6 cells/mL) per well was added immediately by thermo multidrop combi dispenser for incubation 20-24 h at 37° C., […]. At the end of the incubation, 10 μL of cellular supernatant was transferred to proxiplate 384-plus plate for IRF detection, and then 10 μL of QUANTI-Luc™ Gold solution was added to the plate that proceeded with the measurement immediately. To detect cell viability, 30 μL of the CCK-8 working solution (Dojindo Molecular Technologies, cat: CK04-20) was added to the cell plate, which was Incubated for 2 hrs in the incubator to measure the absorbance at 450 nm using Envision.
row,SMILES,EC50 [nM]
1,"CCn1nc(C)c(O)c1-c1n[nH]c(-c2nc(C(N)=O)n3cc(Cl)ncc23)n1 [Example 18, 6-chloro-1-[3-(2-ethyl-4-hydroxy-5-methyl-pyrazol-3-yl)-1H-1,2,4-triazol-5-yl]imidazo[1,5-a]pyrazine-3-carboxamide]",548
2,"CCn1nc(C)c(O)c1-c1n[nH]c(-c2nc(C(N)=O)n3cc(C)ccc23)n1 [Example 19, 1-[3-(2-ethyl-4-hydroxy-5-methyl-pyrazol-3-yl)-1H-1,2,4-triazol-5-yl]-6-methyl-imidazo[1,5-a]pyridine-3-carboxamide]",408
3,"Cc1nn(CCn2ccnc2)c(-c2n[nH]c(-c3nc(C(N)=O)cc4c3cnn4C)n2)c1O [Example 23, 4-[3-[4-hydroxy-2-(2-imidazol-1-ylethyl)-5-methyl-pyrazol-3-yl]-1H-1,2,4-triazol-5-yl]-1-methyl-pyrazolo[4,3-c]pyridine-6-carboxamide]",275
4,"Cc1nn(CCCC#N)c(-c2n[nH]c(-c3nc(C(N)=O)cc4c3cnn4C)n2)c1O [Example 24, 4-[3-[2-(3-cyanopropyl)-4-hydroxy-5-methyl-pyrazol-3-yl]-1H-1,2,4-triazol-5-yl]-1-methyl-pyrazolo[4,3-c]pyridine-6-carboxamide]",127
5,"Cc1nn(CCC#N)c(-c2n[nH]c(-c3nc(C(N)=O)cc4c3cnn4C)n2)c1O [Example 25, 4-[3-[2-(2-cyanoethyl)-4-hydroxy-5-methyl-pyrazol-3-yl]-1H-1,2,4-triazol-5-yl]-1-methyl-pyrazolo[4,3-c]pyridine-6-carboxamide]",50
6,"CCn1nc(C)c(O)c1-c1n[nH]c(-c2nc(C(N)=O)n3cc(C(F)F)ncc23)n1 [Example 26, 6-(difluoromethyl)-1-[3-(2-ethyl-4-hydroxy-5-methyl-pyrazol-3-yl)-1H-1,2,4-triazol-5-yl]imidazo[1,5-a]pyrazine-3-carboxamide]",340
7,"Cc1cn2c(C(N)=O)c(F)c(-c3nc(-c4c(O)c(C)nn4CCC#N)n[nH]3)c2cn1 [Example 30, 8-[3-[2-(2-cyanoethyl)-4-hydroxy-5-methyl-pyrazol-3-yl]-1H-1,2,4-triazol-5-yl]-7-fluoro-3-methyl-pyrrolo[1,2-a]pyrazine-6-carboxamide]",321
8,"Cc1nn(CCn2nccn2)c(-c2n[nH]c(-c3nc(C(N)=O)cc4c3cnn4C)n2)c1O [Example 35, 4-[3-[4-hydroxy-5-methyl-2-[2-(triazol-2-yl)ethyl]pyrazol-3-yl]-1H-1,2,4-triazol-5-yl]-1-methyl-pyrazolo[4,3-c]pyridine-6-carboxamide]",79
9,"Cc1nn(CCn2ccnn2)c(-c2n[nH]c(-c3nc(C(N)=O)cc4c3cnn4C)n2)c1O [Example 36, 4-[3-[4-hydroxy-5-methyl-2-[2-(triazol-1-yl)ethyl]pyrazol-3-yl]-1H-1,2,4-triazol-5-yl]-1-methyl-pyrazolo[4,3-c]pyridine-6-carboxamide]",240
10,"Cc1nn(CCC(F)F)c(-c2n[nH]c(-c3nc(C(N)=O)cc4c3cnn4C)n2)c1O [Example 37, 4-[3-[2-(3,3-difluoropropyl)-4-hydroxy-5-methyl-pyrazol-3-yl]-1H-1,2,4-triazol-5-yl]-1-methyl-pyrazolo[4,3-c]pyridine-6-carboxamide]",14
11,"Cc1nn(CCn2cncn2)c(-c2n[nH]c(-c3nc(C(N)=O)cc4c3cnn4C)n2)c1O [Example 39, 4-[3-[4-hydroxy-5-methyl-2-[2-(1,2,4-triazol-1-yl)ethyl]pyrazol-3-yl]-1H-1,2,4-triazol-5-yl]-1-methyl-pyrazolo[4,3-c]pyridine-6-carboxamide]",225

# Further lines, results first:
row,EC50 [nM],SMILES
1,202,"CCn1nc(C)c(O)c1-c1n[nH]c(-c2nc(C(N)=O)n3cc(C)ncc23)n1 [Example 1, 1-[3-(2-ethyl-4-hydroxy-5-methyl-pyrazol-3-yl)-1H-1,2,4-triazol-5-yl]-6-methyl-imidazo[1,5-a]pyrazine-3-carboxamide]"
2,606,"CCn1nc(C)c(O)c1-c1n[nH]c(-c2cc(C(N)=O)n3cc(C)ncc23)n1 [Example 3, 8-[3-(2-ethyl-4-hydroxy-5-methyl-pyrazol-3-yl)-1H-1,2,4-triazol-5-yl]-3-methyl-pyrrolo[1,2-a]pyrazine-6-carboxamide]"
3,829,"CCn1nc(C)c(O)c1-c1nc(-c2nc(C(N)=O)n3cc(C)ncc23)co1 [Example 9, 1-[2-(2-ethyl-4-hydroxy-5-methyl-pyrazol-3-yl)oxazol-4-yl]-6-methyl-imidazo[1,5-a]pyrazine-3-carboxamide]"
4,419,"CCn1nc(C)c(O)c1-c1nc(-c2nc(C(N)=O)cc3c2cnn3C)c(C(F)F)o1 [Example 10, 4-[5-(difluoromethyl)-2-(2-ethyl-4-hydroxy-5-methyl-pyrazol-3-yl)oxazol-4-yl]-1-methyl-pyrazolo[4,3-c]pyridine-6-carboxamide]"
5,283,"CCn1nc(C)c(O)c1-c1n[nH]c(-c2cc(C(N)=O)c3cc(C)ncn23)n1 [Example 20, 7-[3-(2-ethyl-4-hydroxy-5-methyl-pyrazol-3-yl)-1H-1,2,4-triazol-5-yl]-3-methyl-pyrrolo[1,2-c]pyrimidine-5-carboxamide]"
6,141,"CCn1nc(C)c(O)c1-c1nc(-n2nc(C(N)=O)c3cc(C)ncc32)co1 [Example 21, 1-[2-(2-ethyl-4-hydroxy-5-methyl-pyrazol-3-yl)oxazol-4-yl]-5-methyl-pyrazolo[3,4-c]pyridine-3-carboxamide]"
7,82,"CCn1nc(C)c(O)c1-c1n[nH]c(-n2nc(C(N)=O)c3cc(C)ncc32)n1 [Example 22, 1-[3-(2-ethyl-4-hydroxy-5-methyl-pyrazol-3-yl)-1H-1,2,4-triazol-5-yl]-5-methyl-pyrazolo[3,4-c]pyridine-3-carboxamide]"
8,292,"CCn1nc(C)c(O)c1-c1noc(-c2cc(C(N)=O)c3cc(C)ncn23)n1 [Example 27, 7-[3-(2-ethyl-4-hydroxy-5-methyl-pyrazol-3-yl)-1,2,4-oxadiazol-5-yl]-3-methyl-pyrrolo[1,2-c]pyrimidine-5-carboxamide]"
9,134,"CCn1nc(C)c(O)c1-c1nc(-c2c(F)c(C(N)=O)n3cc(C)ncc23)co1 [Example 28, 8-[2-(2-ethyl-4-hydroxy-5-methyl-pyrazol-3-yl)oxazol-4-yl]-7-fluoro-3-methyl-pyrrolo[1,2-a]pyrazine-6-carboxamide]"
10,618,"CCn1nc(C)c(O)c1-c1nc(-n2cc(C(N)=O)c3cc(C)ncc32)co1 [Example 29, 1-[2-(2-ethyl-4-hydroxy-5-methyl-pyrazol-3-yl)oxazol-4-yl]-5-methyl-pyrrolo[2,3-c]pyridine-3-carboxamide]"
11,36,"Cc1cc2c(C(N)=O)nn(-c3nc(-c4c(O)c(C)nn4CC4CC4)n[nH]3)c2cn1 [Example 32, 1-[3-[2-(cyclopropylmethyl)-4-hydroxy-5-methyl-pyrazol-3-yl]-1H-1,2,4-triazol-5-yl]-5-methyl-pyrazolo[3,4-c]pyridine-3-carboxamide]"
12,135,"Cc1cc2c(C(N)=O)nn(-c3nc(-c4c(O)c(C)nn4C4CC4)n[nH]3)c2cn1 [Example 33, 1-[3-(2-cyclopropyl-4-hydroxy-5-methyl-pyrazol-3-yl)-1H-1,2,4-triazol-5-yl]-5-methyl-pyrazolo[3,4-c]pyridine-3-carboxamide]"
13,48,"Cc1cc2c(C(N)=O)nn(-c3nc(-c4c(O)c(C)nn4CCCF)n[nH]3)c2cn1 [Example 41, 1-[3-[2-(3-fluoropropyl)-4-hydroxy-5-methyl-pyrazol-3-yl]-1H-1,2,4-triazol-5-yl]-5-methyl-pyrazolo[3,4-c]pyridine-3-carboxamide]"
14,45,"COCCn1nc(C)c(O)c1-c1n[nH]c(-n2nc(C(N)=O)c3cc(C)ncc32)n1 [Example 42, 1-[3-[4-hydroxy-2-(2-methoxyethyl)-5-methyl-pyrazol-3-yl]-1H-1,2,4-triazol-5-yl]-5-methyl-pyrazolo[3,4-c]pyridine-3-carboxamide]"
15,15,"CCCCn1nc(C)c(O)c1-c1n[nH]c(-n2nc(C(N)=O)c3cc(C)ncc32)n1 [Example 43, 1-[3-(2-butyl-4-hydroxy-5-methyl-pyrazol-3-yl)-1H-1,2,4-triazol-5-yl]-5-methyl-pyrazolo[3,4-c]pyridine-3-carboxamide]"
16,46,"COCCCn1nc(C)c(O)c1-c1n[nH]c(-n2nc(C(N)=O)c3cc(C)ncc32)n1 [Example 44, 1-[3-[4-hydroxy-2-(3-methoxypropyl)-5-methyl-pyrazol-3-yl]-1H-1,2,4-triazol-5-yl]-5-methyl-pyrazolo[3,4-c]pyridine-3-carboxamide]"
17,97,"Cc1cc2c(C(N)=O)nn(-c3nc(-c4c(O)c(C)nn4CCc4ccncc4)n[nH]3)c2cn1 [Example 46, 1-[3-[4-hydroxy-5-methyl-2-[2-(4-pyridyl)ethyl]pyrazol-3-yl]-1H-1,2,4-triazol-5-yl]-5-methyl-pyrazolo[3,4-c]pyridine-3-carboxamide]"
